Key:
[1] = system: rhinovirus B14; test: Ratio of EC50 for HRV14 infected in human H1-HeLa cells after 1 passage for 6 days to EC50 for wild type HRV14 infected in human H1-HeLa cells; format: functional
[2] = system: rhinovirus B14; test: Ratio of EC50 for HRV14 with 3C protease with A121A/V, T129A, T131A, N132S, Y139Y/H, T143P mutation infected in human H1-HeLa cells after 12 passages for 72 days to EC50 for wild type HRV14 infected in human H1-HeLa cells; format: functional
[3] = system: Human rhinovirus sp.; test: Ratio of EC50 for HRV Hanks with 3C protease T130A mutation infected in human H1-HeLa cells after 6 passages for 40 days to EC50 for wild type HRV Hanks infected in human H1-HeLa cells; format: functional
[4] = system: rhinovirus B14; test: Antiviral activity against HRV14 with 3C protease A121A/V, T129A, T131A, T143P, Y139Y/H mutation infected in human H1-HeLa cells assessed as virus-induced cytopathic effect after 11 passages for 65 days by XTT assay; format: functional, organism-based; details: Rhinovirus B
[5] = system: rhinovirus B14; test: Ratio of EC50 for HRV14 with 3C protease T131A mutation infected in human H1-HeLa cells to EC50 for wild type HRV14 infected in human H1-HeLa cells; format: functional
[6] = system: rhinovirus A2; test: Ratio of EC50 for HRV2 infected in human H1-HeLa cells after 5 passages for 30 days to EC50 for wild type HRV2 infected in human H1-HeLa cells; format: functional
[7] = system: rhinovirus A39; test: Ratio of EC50 for HRV39 infected in human H1-HeLa cells after 5 passages for 29 days to EC50 for wild type HRV39 infected in human H1-HeLa cells; format: functional
[8] = system: rhinovirus A39; test: Ratio of EC50 for HRV39 with 3C protease […], L136/F mutation infected in human H1-HeLa cells after 5 passages for 29 days to EC50 for wild type HRV39 infected in human H1-HeLa cells; format: functional
[9] = system: rhinovirus A2; test: Ratio of EC50 for HRV2 infected in human H1-HeLa cells after 3 passages for 17 days to EC50 for wild type HRV2 infected in human H1-HeLa cells; format: functional
[10] = system: rhinovirus B14; test: Antiviral activity against HRV14 with 3C protease A121A/V, T129A, T131A, N132S, Y139Y/H, T143P mutation infected in human H1-HeLa cells assessed as virus-induced cytopathic effect after 12 passages for 72 days by XTT assay; format: functional, organism-based; details: Rhinovirus B
[11] = system: rhinovirus B14; test: Ratio of EC50 for HRV14 infected in human H1-HeLa cells after 7 passages for 33 days to EC50 for wild type HRV14 infected in human H1-HeLa cells; format: functional
[12] = system: Human rhinovirus sp.; test: Antiviral activity against wild type HRV Hanks infected in human H1-HeLa cells assessed as virus-induced cytopathic effect after 4 days by plaque reduction assay; format: functional, organism-based; details: 96 h
[13] = system: rhinovirus B14; test: Ratio of EC50 for HRV14 with 3C protease T143P mutation infected in human H1-HeLa cells to EC50 for wild type HRV14 infected in human H1-HeLa cells; format: functional
[14] = system: rhinovirus A2; test: Ratio of EC50 for HRV2 infected in human H1-HeLa cells after 8 passages for 52 days to EC50 for wild type HRV2 infected in human H1-HeLa cells; format: functional
[15] = system: rhinovirus B14; test: Ratio of EC50 for HRV14 infected in human H1-HeLa cells after 6 passages for 27 days to EC50 for wild type HRV14 infected in human H1-HeLa cells; format: functional
[16] = system: rhinovirus B14; test: Antiviral activity against HRV14 with 3C protease T143P mutation infected in human H1-HeLa cells assessed as virus-induced cytopathic effect after 3 days by XTT assay; format: functional, organism-based; details: Rhinovirus B, 72 h
[17] = system: rhinovirus B14; test: Ratio of EC50 for HRV14 with 3C protease with T129A, T131T/A, T143P mutation infected in human H1-HeLa cells after 5 passages for 22 days to EC50 for wild type HRV14 infected in human H1-HeLa cells; format: functional
[18] = system: rhinovirus A2; test: Ratio of EC50 for HRV2 with 3C protease N165T mutation infected in human H1-HeLa cells after 3 passages for 24 days to EC50 for wild type HRV2 infected in human H1-HeLa cells; format: functional
[19] = system: rhinovirus A39; test: Ratio of EC50 for HRV39 infected in human H1-HeLa cells after 9 passages for 50 days to EC50 for wild type HRV39 infected in human H1-HeLa cells; format: functional
[20] = system: rhinovirus A2; test: Ratio of EC50 for HRV2 infected in human H1-HeLa cells after 9 passages for 62 days to EC50 for wild type HRV2 infected in human H1-HeLa cells; format: functional
[21] = system: rhinovirus A2; test: Ratio of EC50 for HRV2 infected in human H1-HeLa cells after 6 passages for 37 days to EC50 for wild type HRV2 infected in human H1-HeLa cells; format: functional
[22] = system: rhinovirus A2; test: Ratio of EC50 for HRV2 with 3C protease N165T mutation infected in human H1-HeLa cells after 4 passages for 24 days to EC50 for wild type HRV2 infected in human H1-HeLa cells; format: functional
[23] = system: rhinovirus B14; test: Antiviral activity against HRV14 with 3C protease T129A, T131A, Y139H, T143P mutation infected in human H1-HeLa cells assessed as virus-induced cytopathic effect after 3 days by XTT assay; format: functional, organism-based; details: Rhinovirus B, 72 h
[24] = system: Human rhinovirus sp.; test: Ratio of EC50 for HRV Hanks infected in human H1-HeLa cells after 1 passage for 7 days to EC50 for wild type HRV Hanks infected in human H1-HeLa cells; format: functional
[25] = system: rhinovirus A39; test: Antiviral activity against wild type HRV39 infected in human H1-HeLa cells assessed as virus-induced cytopathic effect after 3 days by XTT assay; format: functional, organism-based; details: Rhinovirus A, 72 h
[26] = system: rhinovirus A2; test: Antiviral activity against HRV2 with 3C protease N165T mutation infected in human H1-HeLa cells assessed as virus-induced cytopathic effect after 6 passages for 37 days by XTT assay; format: functional, organism-based; details: Rhinovirus A
[27] = system: rhinovirus B14; test: Ratio of EC50 for HRV14 infected in human H1-HeLa cells after 4 passages for 17 days to EC50 for wild type HRV14 infected in human H1-HeLa cells; format: functional
[28] = system: rhinovirus A2; test: Antiviral activity against HRV2 infected in human H1-HeLa cells assessed as virus-induced cytopathic effect after 3 passages for 17 days by XTT assay; format: functional, organism-based; details: Rhinovirus A, 408 h
[29] = system: rhinovirus A39; test: Ratio of EC50 for HRV39 infected in human H1-HeLa cells after 3 passages for 14 days to EC50 for wild type HRV39 infected in human H1-HeLa cells; format: functional
[30] = system: rhinovirus A39; test: Antiviral activity against HRV39 with 3C protease […], L136/F mutation infected in human H1-HeLa cells assessed as virus-induced cytopathic effect after 5 passages for 29 days by XTT assay; format: functional, organism-based; details: Rhinovirus A, 696 h
[31] = system: rhinovirus A2; test: Ratio of EC50 for HRV2 with 3C protease N165T mutation infected in human H1-HeLa cells after 6 passages for 37 days to EC50 for wild type HRV2 infected in human H1-HeLa cells; format: functional
[32] = system: rhinovirus A39; test: Ratio of EC50 for HRV39 infected in human H1-HeLa cells after 4 passages for 24 days to EC50 for wild type HRV39 infected in human H1-HeLa cells; format: functional

SMILES: CCOC(=O)/C=C/[C@H](C[C@@H]1CCNC1=O)NC(=O)[C@@H](CC(=O)[C@@H](NC(=O)c1cc(C)on1)C(C)C)Cc1ccc(F)cc1 [RUPINTRIVIR]
- Ratio EC50 [1]: 3.5
- Ratio EC50 [2]: 20
- Ratio EC50 [3]: 3
- EC50 [4]: 335 nM
- Ratio EC50 [5]: 1
- Ratio EC50 [6]: 5
- Ratio EC50 [7]: 6
- Ratio EC50 [8]: 3
- Ratio EC50 [9]: 3
- EC50 [10]: 414 nM
- Ratio EC50 [11]: 30
- EC50 [12]: 19 nM
- Ratio EC50 [13]: 1
- Ratio EC50 [14]: 15
- Ratio EC50 [15]: 20
- EC50 [16]: 15 nM
- Ratio EC50 [17]: 5
- Ratio EC50 [18]: 1
- Ratio EC50 [19]: 6
- Ratio EC50 [20]: 15
- Ratio EC50 [21]: 5
- Ratio EC50 [22]: 2
- EC50 [23]: 268 nM
- Ratio EC50 [24]: 1
- EC50 [25]: 24 nM
- EC50 [26]: 67 nM
- Ratio EC50 [27]: 10
- EC50 [28]: 34 nM
- Ratio EC50 [29]: 6
- EC50 [30]: 83 nM
- Ratio EC50 [31]: 2
- Ratio EC50 [32]: 6

From ChEMBL document CHEMBL1151438, “In vitro resistance study of rupintrivir, a novel inhibitor of human rhinovirus 3C protease” (Antimicrob Agents Chemother, 2007)
